Source: the supplement of paper PMC12137928
Structures can show the parent of a compound that is named as a salt.

Test system: HCT116
Details: 72 h
In short: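 HCT116 cells went into 1536-well plates at 250 per well. CellTiter-Glo luminescence was expressed relative to vehicle (0%) and positive control (-100%) and then pattern-corrected. Both IC50 and maximal efficacy were taken from four-parameter Hill fits.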

IC50 cell viability (ICRF193 0 nM) [µM]	IC50 cell viability (ICRF193 200 nM) [µM]	SMILES
> 45.8	> 45.8	CC/C=C(\C(=O)N[C@@H]1C(=O)N2C(C(=O)OCOC(=O)C(C)(C)C)=C(COC(N)=O)CS[C@H]12)c1csc(N)n1 [Cefcapene pivoxil hydrochloride]
> 45.8	> 45.8	CC(=O)N(CC(O)CO)c1c(I)c(C(=O)NCC(O)CO)c(I)c(C(=O)NCC(O)CO)c1I (stereo not given) [Iohexol]
> 45.8	> 45.8	CCCCCCc1ccc(O)cc1O [4-Hexylresorcinol]
> 45.8	> 45.8	N#C/C(=C1/SCC(c2ccccc2Cl)S1)n1ccnc1 (stereo not given) [Lanoconazole]
> 45.8	> 45.8	CCCCCCCC(=O)OCC(O)CO (stereo not given) [2,3-Dihydroxypropyl octanoate]
> 45.8	> 45.8	OC/C=C/c1ccccc1 [Cinnamyl alcohol]
> 45.8	> 45.8	CCCCC/C=C/C/C=C/CCCCCCCC(=O)O [9(E),12(E)-Octadecadienoic acid]
> 45.8	> 45.8	C[C@H](CCC(=O)O)[C@H]1CC[C@H]2[C@@H]3[C@H](O)C[C@@H]4C[C@H](O)CC[C@]4(C)[C@H]3C[C@H](O)[C@]12C [Cholic Acid]
> 45.8	> 45.8	CC[C@H](C)[C@H](N)C(=O)O (racemic) [DL-Isoleucine]
> 45.8	> 45.8	Cc1cccc(N(C)C(=S)Oc2ccc3ccccc3c2)c1 [Tolnaftate]
> 45.8	> 45.8	O=C(O)CCNC(=O)c1ccc(/N=N/c2ccc(O)c(C(=O)O)c2)cc1 [Balsalazide disodium]
> 45.8	> 45.8	Clc1ccc(Cn2c(CN3CCCC3)nc3ccccc32)cc1 [Clemizole hydrochloride]
> 45.8	> 45.8	Nc1nc(=O)c(Br)c(-c2ccccc2)[nH]1 [Bropirimine]
> 45.8	> 45.8	Cc1c(NC(=O)c2cccnc2)c(=O)n(-c2ccccc2)n1C [Nifenazone]
> 45.8	> 45.8	O=c1ccc2ccccc2o1 [Coumarin]
> 45.8	> 45.8	C[C@H]1C[C@H]2[C@@H]3CCC4=CC(=O)C=C[C@]4(C)[C@H]3C(=O)C[C@]2(C)[C@@]1(O)C(=O)CO [Meprednisone]
> 45.8	> 45.8	CCCCCC1Nc2cc(C(F)(F)F)c(S(N)(=O)=O)cc2S(=O)(=O)N1 (stereo not given) [Penflutizide]
> 45.8	> 45.8	O=C1CCCC(=O)C1C(=O)c1ccc(C(F)(F)F)cc1[N+](=O)[O-] [Nitisinone]
> 45.8	> 45.8	CC[C@H]1OC(=O)[C@H](C)[C@@H](O[C@H]2C[C@@](C)(OC)[C@@H](O)[C@H](C)O2)[C@H](C)[C@@H](O[C@@H]2O[C@H](C)C[C@H](N(C)C)[C@H]2O)[C@](C)(OC)C[C@@H](C)C(=O)[C@H](C)[C@@H](O)[C@]1(C)O [Clarithromycin]
> 45.8	> 45.8	CC1(C)O[C@@H]2C[C@H]3[C@@H]4CCC5=CC(=O)CC[C@]5(C)[C@@]4(F)[C@@H](O)C[C@]3(C)[C@]2(C(=O)CCl)O1 [Halcinonide]
> 45.8	> 45.8	O=C(CCCN1CCC(C(=O)c2ccc(F)cc2)CC1)c1ccc(F)cc1 [Lenperone Hydrochloride]
> 45.8	> 45.8	COc1ccc2c(=O)c(C)c(-c3ccccc3)oc2c1CN(C)C [Dimefline hydrochloride]
> 45.8	> 45.8	CC(C)[C@H]1CC[C@H](C(=O)N[C@H](Cc2ccccc2)C(=O)O)CC1 [Nateglinide]
> 45.8	> 45.8	CN(C/C=C/C#CC(C)(C)C)Cc1cccc2ccccc12 [Terbinafine]
> 45.8	> 45.8	CC(C(=O)O)c1ccc(C2CCCCC2)c2ccccc12 (stereo not given) [Quadrisol]

IC50 cell viability (ICRF193 0 nM) [µM]	IC50 cell viability (ICRF193 200 nM) [µM]	SMILES
> 45.8	> 45.8	CCC(c1ccccc1)c1noc(CCN(CC)CC)n1 (stereo not given) [Proxazole citrate]
> 45.8	> 45.8	CO[C@H]1C[C@H](O[C@H]2[C@H](C)[C@@H](O[C@@H]3O[C@H](C)C[C@H](N(C)C)[C@H]3OC(C)=O)[C@@H](C)C[C@@]3(CO3)C(=O)[C@H](C)[C@@H](OC(C)=O)[C@@H](C)[C@@H](C)OC(=O)[C@@H]2C)O[C@@H](C)[C@@H]1OC(C)=O [Troleandomycin]
> 45.8	> 45.8	CCOc1ccc2c(c1)C(C)=CC(C)(C)N2 [Ethoxyquin]
> 45.8	> 45.8	CCCCCCCCCCCCOCCO [2-(Dodecyloxy)ethanol]
> 45.8	> 45.8	CC(=O)OCC(=O)[C@@]12N=C(C)O[C@@H]1C[C@H]1[C@@H]3CCC4=CC(=O)C=C[C@]4(C)[C@H]3[C@@H](O)C[C@@]12C [Deflazacort]
> 45.8	> 45.8	O=c1[nH]cnc2c1ncn2[C@@H]1O[C@H](CO)[C@@H](O)[C@H]1O [(-)-Inosine]
> 45.8	> 45.8	O=C(O)COC(=O)Cc1ccccc1Nc1c(Cl)cccc1Cl [Aceclofenac]
> 45.8	> 45.8	CCN1CCN(c2cc(-c3ccc(F)cc3)c3c(n2)CCCCCC3)CC1 [Blonanserin]
> 45.8	> 45.8	Cc1ccc([C@@H]2O[C@H](CO)[C@@H](O)[C@H](O)[C@H]2O)cc1Cc1ccc(-c2ccc(F)cc2)s1 [Canagliflozin]
> 45.8	> 45.8	O=C(O)[C@@H]1CCCN1 [L-Proline]
> 45.8	> 45.8	CSCC[C@H](NC(=O)[C@H](Cc1ccc(OS(=O)(=O)O)cc1)NC(=O)[C@@H](N)CC(=O)O)C(=O)NCC(=O)N[C@@H](Cc1c[nH]c2ccccc12)C(=O)N[C@@H](CCSC)C(=O)N[C@@H](CC(=O)O)C(=O)N[C@@H](Cc1ccccc1)C(N)=O [Sincalide]
> 45.8	> 45.8	O=C([O-])CC(O)C(=O)[O-].[Na+].[Na+] (stereo not given) [Disodium 2-hydroxybutanedioate]
> 45.8	> 45.8	CCCOc1ccc(C(=O)OCCN(CC)CC)cc1N [Proparacaine]
> 45.8	> 45.8	CC(OC(=O)NCC1(CC(=O)O)CCCCC1)OC(=O)C(C)C (stereo not given) [GABAPENTIN ENACARBIL]
> 45.8	> 45.8	N[C@@H](C(=O)N[C@@H]1C(=O)N2C(C(=O)O)=C(CSc3c[nH]nn3)CS[C@H]12)c1ccc(O)cc1 [Cefatrizine]
> 45.8	> 45.8	C#C[C@]1(O)CC[C@H]2[C@@H]3CCC4=CC(=O)CC[C@@H]4[C@H]3C(=C)C[C@@]21CC [Etonogestrel]
> 45.8	> 45.8	CCC1Nc2cc(Cl)c(S(N)(=O)=O)cc2S(=O)(=O)N1 (stereo not given) [Ethiazide]
> 45.8	> 45.8	CC(=O)OCC(=O)[C@@]12OC3(CCCC3)O[C@@H]1C[C@H]1[C@@H]3CCC4=CC(=O)C=C[C@]4(C)[C@@]3(F)[C@@H](O)C[C@@]12C [AMCINONIDE]
> 45.8	> 45.8	CC1=NN(c2ccccc2)C(=O)C1 [Edaravone]
> 45.8	> 45.8	CN(CC(O)CO)C(=O)c1c(I)c(NC(=O)C(CO)CO)c(I)c(C(=O)N(C)CC(O)CO)c1I (stereo not given) [IOBITRIDOL]
> 45.8	> 45.8	CC(=O)/C=C/C=C1/C2CCC(C2)C1(C)C (stereo not given) [Bornelone]
> 45.8	> 45.8	OCCN(CCO)c1nc(N2CCCCC2)c2nc(N(CCO)CCO)nc(N3CCCCC3)c2n1 [Dipyridamole]
> 45.8	> 45.8	COc1ccc(OC)c(C(O)CNC(=O)CN)c1 (stereo not given) [Midodrine hydrochloride]
> 45.8	> 45.8	CO[C@H]1[C@@H](O)[C@H](N)[C@@H](O[C@H]2O[C@H]([C@H](C)N)CC[C@H]2N)[C@H](O)[C@@H]1N(C)C(=O)CN [Astromicin]
> 45.8	> 45.8	COc1ccc(/C=C/C(=O)OCCC(C)C)cc1 [Amiloxate]

SMILES	IC50 cell viability (ICRF193 0 nM) [µM]	IC50 cell viability (ICRF193 200 nM) [µM]
CNC(C)Cc1ccccc1OC (stereo not given) [Methoxyphenamine]	> 45.8	> 45.8
COc1cc2c(cc1OC)C1CC(=O)C(CC(C)C)CN1CC2 (stereo not given) [Tetrabenazine]	> 45.8	> 45.8
O=C(CCCN1CCC2(CC1)C(=O)NCN2c1ccccc1)c1ccc(F)cc1 [Spiperone]	> 45.8	> 45.8
CNC1CC(N)C(O)C(OC2OC(CO)C(O)C3OC4(OC(C(N)CO)C(O)C(O)C4O)OC23)C1O (stereo not given) [Hygromycin B]	> 45.8	> 45.8
C[C@]12CCC(=O)C=C1CC[C@@H]1[C@@H]2CC[C@]2(C)C(=O)CC[C@@H]12 [4-Androstene-3,17-dione]	> 45.8	> 45.8
CC(N)Cc1ccc(O)cc1 (stereo not given) [HYDROXYAMPHETAMINE HYDROBROMIDE]	> 45.8	> 45.8
NCCN.[Cl][Pt][Cl] [Dichloro(ethylenediamine)platinum(II)]	> 45.8	> 45.8
C=CCN1CC[C@]23c4c5ccc(O)c4O[C@H]2[C@@H](OCCOCCOCCOCCOCCOCCOCCOC)CC[C@@]3(O)[C@H]1C5 [Naloxegol (oxalate)]	> 45.8	> 45.8
COP(=S)(OC)Oc1cc(Cl)c(Cl)cc1Cl [Fenchlorphos]	> 45.8	> 45.8
CCN(CC)C(=O)N[C@H]1C[C@@H]2c3cccc4[nH]cc(c34)C[C@H]2N(C)C1 [Terguride]	> 45.8	> 45.8
